The results in this text go back to patent publication US12084430B2, “Tricyclic urea compounds as JAK2 V617F inhibitors” (Incyte Corporation, priority 2022, dated 2024).

What is called IC50 is the midpoint of a concentration-inhibition curve.

A value given as a limit tells only on which side of the number the result lay.

In assay [1] the test system is pSTAT5 signaling in SET-2 cells in whole blood. Kind of assay: pSTAT5 SET-2 whole blood MSD assay. The format is cell-based. As to conditions: Homo sapiens, pSTAT5, 2 hour, read-out: SET2 WB IC50. Here is the method:
Example F. pSTAT5 SET-2 Whole Blood MSD Assay
SET-2 cells shipped from ABS, RPMI1640 medium, Fetal Bovine Serum from Gibco, Phospho-STAT5a,b Whole Cell Lysate Kit from Mesoscale, Retronectin (Recombinant Human Fibronectin Fragment) from TaKaRa, 96 well cell culture plate flat bottom from Corning, lysis buffer from Cell Signaling Technology, and sterile PBS from Gibco. Whole Blood from by BioIVT.
SET-2 cells were cultured in RPMI media with 20% FBS at 37° C. humidified incubator supplied with 5% CO2. On the day of the assay, 40 uL per well of diluted retronectin working solution was added to sterile 96-well clear flat bottom tissue culture plates (1:200 dilution of retronectin in sterile PBS) and incubated at 37 C for 1 hour. After 1 hour, the retronectin working solution was aspirated and SET-2 cells were seeded at 100,000/well in RPMI+20% FBS. Cells were incubated overnight at 37° C. and 5% CO2. The next day, the medium was removed and 40 μL of diluted compounds in serum-free RPMI and whole blood was added to the cells for a 2 hour incubation at 37° C. and 5% CO2. The compound starting concentration is 20 μM and 2.5 fold serial diluted down to 0.21 nM. The whole blood and compound mixture was then aspirated off using the BlueCat plate washer and washed 1× with PBS. Cells were lysed by adding 40 μL of 3× complete lysis buffer and shaken at room temperature for 45-60 minutes (complete lysis buffer consists of Cell Signaling Technology lysis buffer diluted to 3× and supplemented with Mesoscale's protease inhibitor, phosphatase I inhibitor, and phosphatase II inhibitor). The pSTAT5 MSD plates were blocked by adding 150 μL of Blocker A solution per well to the MSD plates and incubated at room temperature with shaking at 400 rpm for one hour or longer. After blocking, plates were washed 3× with 300 μL/well of IX Tris Wash Buffer. After lysis, added 25 μL per well of lysed sample was added to MSD plate and incubated with shaking at 4° C. wrapped in foil overnight. The next day, plates were washed again and 25 μL/well of diluted 1× Detection Antibody Solution, wrapped in foil, and incubated at room temperature with shaking at 400 rpm for 1 hour. Plates were then washed again and lastly, 150 μL/well of 1× Read Buffer T was added to all wells. Plates were analyzed on MSD Discovery within 5 minutes. […] Data analysis was performed in GraphPad Prism using a 4-parameter fit and data was reported as Average±SD.

The subject of assay [2] is KIT. Kind of assay: KIT enzymatic assay. Type of assay: biochemical. The procedure:
(§1) Example D. KIT Enzymatic Assay
(§2) The kinase assays were carried out at room temperature in assay buffer (HEPES 50 mM, pH 7.0, NaN3 0.02%, BSA 0.01%, Orthovanadate 0.1 mM, DTT 1 mM, MgCl2 10 mM) in a final volume of 10 μL. Testing compounds were prepared by serial dilution in DMSO and transferred to the plate wells by ECHO liquid handler (Labcyte) with 0.5% DMSO in the final assay. […]. Reactions were initiated by the addition of 5 μL ATP in assay buffer. The final 10 μL kinase reaction consists of 0.12 nM KIT, 1 mM ATP, 500 nM TK Substrate-biotin and SEB reagent 62.5 nM in assay buffer. […] The plates were then sealed and centrifuged at 1800 rpm for 2 minutes. After 60 minutes incubation at room temperature, the product activity was determined by measuring the fluorescence at 620 nm and 665 nm on Pherastar microplate reader (BMG Labtech). A ratio is calculated (665/620 nm) for each well. Wells with DMSO only were served as the positive controls and wells containing no ATP were used as negative controls. IC50 determination was performed by fitting the curve of percent control activity versus the log of the compound concentration using the GraphPad Prism 7.0 software.

Assay [3] concerns the target KIT (Homo sapiens, UniProt P10721). Kind of assay: KIT enzymatic assay. The format is biochemical. The settings on record: 1 mM ATP. Here is the method: as §1, §2

Chain of KIT (Homo sapiens, UniProt P10721) (P10721 26-976, species assumed): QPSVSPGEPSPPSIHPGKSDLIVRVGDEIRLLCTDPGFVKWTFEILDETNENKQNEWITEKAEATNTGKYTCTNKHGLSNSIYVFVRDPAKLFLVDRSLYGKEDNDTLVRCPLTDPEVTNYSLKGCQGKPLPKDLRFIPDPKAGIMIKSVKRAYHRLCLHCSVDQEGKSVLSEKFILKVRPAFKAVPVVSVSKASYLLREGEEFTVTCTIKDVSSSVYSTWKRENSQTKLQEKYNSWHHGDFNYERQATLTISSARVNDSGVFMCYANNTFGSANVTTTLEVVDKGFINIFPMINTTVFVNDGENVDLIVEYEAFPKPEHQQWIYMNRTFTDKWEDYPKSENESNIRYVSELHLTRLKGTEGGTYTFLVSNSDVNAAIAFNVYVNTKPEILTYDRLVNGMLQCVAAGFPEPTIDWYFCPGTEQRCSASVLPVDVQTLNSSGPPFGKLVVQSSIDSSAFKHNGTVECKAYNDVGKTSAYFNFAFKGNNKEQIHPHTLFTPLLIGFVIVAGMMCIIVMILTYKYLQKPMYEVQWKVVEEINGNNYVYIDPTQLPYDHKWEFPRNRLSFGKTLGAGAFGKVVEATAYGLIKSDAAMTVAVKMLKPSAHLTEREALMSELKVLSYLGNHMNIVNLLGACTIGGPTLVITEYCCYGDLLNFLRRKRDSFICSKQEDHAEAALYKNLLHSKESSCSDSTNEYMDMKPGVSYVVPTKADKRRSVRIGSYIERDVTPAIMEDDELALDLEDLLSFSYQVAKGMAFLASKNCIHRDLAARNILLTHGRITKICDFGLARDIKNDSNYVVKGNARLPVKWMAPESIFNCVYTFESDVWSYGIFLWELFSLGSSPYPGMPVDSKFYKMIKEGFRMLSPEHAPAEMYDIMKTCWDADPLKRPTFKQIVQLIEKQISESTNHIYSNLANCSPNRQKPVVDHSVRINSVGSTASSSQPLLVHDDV

Turning to `[2H]C([2H])([2H])n1ncc2cc(-c3c(-c4cn(C([2H])([2H])C([2H])([2H])[2H])nc4F)[nH]c4ncc5c(c34)n([C@@H]3CC[C@@H](NC(=O)OC)C3)c(=O)n5C([2H])([2H])[2H])ccc21` [Example 15, Methyl ((1R,3R)-3-(7-(1-(ethyl-d5)-3-fluoro-1H-pyrazol-4-yl)-3-(methyl-d3)-8-(1-(methyl-d3)-1H-indazol-5-yl)-2-oxo-3,6-dihydroimidazo[4,5-d]pyrrolo[2,3-b]pyridin-1(2H)-yl)cyclopentyl)carbamate], the IC50 in assay [1] was at most 2500 nM; against KIT [3], 250 to 1250 nM. Moreover, the “Selectivity KIT/JH2 V617F” value in the assay with KIT [2] is recorded as “**** (selectivity of >1750-fold to ≤5000-fold)”.
On to `[2H]C([2H])([2H])n1cc(-c2[nH]c3ncc4c(c3c2-c2ccc3c(cnn3CC(F)F)c2)n([C@@H]2CC[C@@H](NC(=O)OC)C2)c(=O)n4C)c(F)n1` [Example 18, Methyl ((1R,3R)-3-(8-(1-(2,2-difluoroethyl)-1H-indazol-5-yl)-7-(3-fluoro-1-(methyl-d3)-1H-pyrazol-4-yl)-3-methyl-2-oxo-3,6-dihydroimidazo[4,5-d]pyrrolo[2,3-b]pyridin-1(2H)-yl)cyclopentyl)carbamate], for which the IC50 is at most 2500 nM in assay [1] and 1250 to 2500 nM at KIT [3]. Also, in the assay with KIT [2], the “Selectivity KIT/JH2 V617F” value is given as “****** (selectivity of >12500-fold)”.
Take `COC(=O)N[C@@H]1CC[C@@H](n2c(=O)n(C)c3cnc4[nH]c(-c5cn(C)nc5OC)c(-c5ccccc5)c4c32)C1` [Example 2, Methyl ((1R,3R)-3-(7-(3-methoxy-1-methyl-1H-pyrazol-4-yl)-3-methyl-2-oxo-8-phenyl-3,6-dihydroimidazo[4,5-d]pyrrolo[2,3-b]pyridin-1(2H)-yl)cyclopentyl)carbamate]: the results for the IC50 (in assay [1]; against KIT [3]) were 2500 to 5000 nM and above 2500 nM, respectively. The “Selectivity KIT/JH2 V617F” value with KIT [2] was “**** (selectivity of >1750-fold to ≤5000-fold)”.
Regarding `COC(=O)N[C@@H]1CC[C@@H](n2c(=O)n(C)c3cnc4[nH]c(-c5cn(C)nc5OC)c(-c5ccc(F)cc5)c4c32)C1` [Example 1, Methyl ((1R,3R)-3-(8-(4-fluorophenyl)-7-(3-methoxy-1-methyl-1H-pyrazol-4-yl)-3-methyl-2-oxo-3,6-dihydroimidazo[4,5-d]pyrrolo[2,3-b]pyridin-1(2H)-yl)cyclopentyl)carbamate], the IC50 was 2500 to 5000 nM in assay [1] and above 2500 nM against KIT [3]. The “Selectivity KIT/JH2 V617F” value with KIT [2] is “***** (selectivity of >5000-fold to ≤12500-fold)”.
The like results for `[2H]C([2H])([2H])Oc1ccc(-c2c(-c3cn(C([2H])([2H])[2H])nc3F)[nH]c3ncc4c(c23)n([C@@H]2CC[C@@H](NC(=O)OC)C2)c(=O)n4C([2H])([2H])[2H])cc1` [Example 9, Methyl ((1R,3R)-3-(7-(3-fluoro-1-(methyl-d3)-1H-pyrazol-4-yl)-8-(4-(methoxy-d3)phenyl)-3-(methyl-d3)-2-oxo-3,6-dihydroimidazo[4,5-d]pyrrolo[2,3-b]pyridin-1(2H)-yl)cyclopentyl)carbamate] were, in that order, 2500 to 5000 nM, 250 to 1250 nM and “*** (selectivity of >1500-fold to ≤1750-fold)”.
For the compound `[2H]C([2H])([2H])n1cc(-c2[nH]c3ncc4c(c3c2-c2ccc3c(c2)COC3(C)C)n([C@@H]2CC[C@@H](NC(=O)OC)C2)c(=O)n4C)c(F)n1` [Example 11, Methyl ((1R,3R)-3-(8-(1,1-dimethyl-1,3-dihydroisobenzofuran-5-yl)-7-(3-fluoro-1-(methyl-d3)-1H-pyrazol-4-yl)-3-methyl-2-oxo-3,6-dihydroimidazo[4,5-d]pyrrolo[2,3-b]pyridin-1(2H)-yl)cyclopentyl)carbamate], the values for the IC50 (in assay [1]; on KIT [3]) were at most 2500 nM and above 2500 nM, respectively. The “Selectivity KIT/JH2 V617F” value with KIT [2] was “****** (selectivity of >12500-fold)”.
The like results for `COc1nn(C)cc1-c1[nH]c2ncc3c(c2c1-c1ccc2c(cnn2C)c1)n(C1CCOCC1)c(=O)n3C` [A, reference compound] were, in that order, above 7500 nM, 250 to 1250 nM and “* (selectivity of ≤500-fold)”.
